Measurements from patent US20250352555A1, “METHOD OF INCREASING IMMUNE CELL ACTIVATION AND/OR TREATING CANCER USING DIBENZOXAZEPINONES” (VASCULAR THERAPEUTICS PTY LTD, priority 2022, published 2025).

What was measured:
PD-1 = test: Immunohistochemistry of B16F10 tumors (Day 17), PD-1; type: in vivo, mouse; conditions: B16F10 tumors Day 17, 200 mg/kg i.p., vs vehicle
Source text: (§1) Immunohistochemical staining and analyses. Rabbit monoclonal anti-CD3 (cat. no. ab16669; mouse, rat and human reactive), rabbit monoclonal anti-PD-1 (cat. no. ab214421), rabbit monoclonal anti-CD68 (cat. no. ab125212) antibodies were obtained from Abcam, rabbit monoclonal anti-phospho-ERK (Thr^202/Tyr^204) (cat. no. CST4370), rabbit monoclonal total ERK (cat. no. CST4695), antibodies were obtained from Cell Signaling Technology. Rabbit polyclonal anti-PD-L1 (cat. no. PA5-20343) antibody was obtained from ThermoFisher.
(§2) Formalin fixed, paraffin embedded sections were prepared from tumors. Heat-induced epitope retrieval was applied to all deparaffinized sections (4 μm sections on Superfrost slides) with citrate buffer, pH 6.0 for 5 min at 110° C. Sections were blocked with Dual Endogenous Enzyme Block (DAKO, S2003) for 10 min and then with 2% skim milk for 20 min. Slides were incubated with primary antibody for 60 min at room temperature or overnight at 4° C. and then for 10 min with probe of MACH3 Rabbit AP-Polymer Detection solution (Biocare Medical, M3R533 G, H, L). […] Integrated optical density (IOD) or area of positive staining (red chromagen) was assessed using Image-Pro Plus software (Cybernetics, Bethesda, MD, USA). Positive staining was the average of quantitation in 4-8 fields of view under 20× or 40× objectives. […]

CD28 = CD28 blockade experiment, JUN Western blot in Jurkat T cells; type: cell-based, human; conditions: 3 μM BT2 and 3 μM EGF, 24 h
Description: CD28 blockade experiments. BT2 (3 nmol), vehicle or a mix of BT2 (3 nmol) and recombinant CD28 (3 nmol, Sino biological cat. no. 90182-C08H) or EGF (3 nmol, Sigma cat. no. E9644) in 150 μl growth medium (10% FBS/RPMI 1640 medium) was preincubated for 30 min at 37° C. The mixtures were added to 12-well plates containing 850 μl of 10% FBS/RPMI 1640 medium and 0.5×10^6 Jurkat T cells/well. After 24 h, total cell lysates were prepared in RIPA buffer. Lysates (10 μg) were resolved by SDS-PAGE and transferred to Immobilon-P polyvinylidene difluoride (PVDF) membranes (Millipore, USA). Membranes were blocked with 5% skim milk and incubated with rabbit monoclonal anti-JUN (Abcam, cat. no. ab32137) antibody, mouse monoclonal β-actin antibody (Sigma-Aldrich, cat. no. A5316), This was followed by incubation with horseradish peroxidase-conjugated secondary goat anti-rabbit (DAKO, cat. no. P0448) or goat anti-mouse (DAKO, cat. no. P0447) antibody. Chemiluminescence was detected using the Western Lightning Chemiluminescence system (Thermo Scientific, USA) and ImageQuant™ LAS 4000 biomolecular imager (GE Healthcare Life Sciences, USA). Band intensity in images generated with the LAS 4000 was quantified using NIH Image J. […]

PD-L1 = test: Immunohistochemistry of B16F10 tumors (Day 17), PD-L1; type: in vivo, mouse; conditions: B16F10 tumors Day 17, 200 mg/kg i.p., vs vehicle
Source text: as §1, §2

A375 cells [1] = test: Cell morphology study, A375; type: cell-based, human; conditions: 1 μM, 24 h
Description: Cell morphology studies. Cells were grown in medium containing 10% FBS in 4-well chamber slides. The following day the cells were incubated in medium containing 10% FBS and vehicle, BT2 or SCH772984 at 1 μM for 24 h, then fixed with 4% paraformaldehyde solution for 15 min. After washing briefly in PBS the cells were stained with hemotoxylin and eosin. The slides were scanned using an Aperio ScanScope XT slide scanner (Leica Biosystems, Mt Waverley, Vic, Australia) and images were captured using ImageScope software (Leica Biosystems).
(§3) The morphology of A375 and MeWo cells exposed to 1 μM of BT2 or SCH772984 for 24 h was also assessed.

A375 cells [2] = test: Apoptosis, flow cytometry with Annexin V-FITC, A375; type: cell-based, human; conditions: 1 μM, 24 h
Description: Flow cytometry with Annexin V-FITC. Cells were seeded into 6 well plates in normal culture medium containing 10% FBS. After culturing overnight, the cells were incubated in complete medium containing vehicle, BT2 or SCH772984 at 1 μM and left for 24 h. The culture medium was removed and the cells were washed with PBS. Accutase (Stem Cell Technologies, cat. no. 07920) was used to detach the cells. The cells were then washed and centrifuged at 300 g for 5 min and resuspended at 1×10^6 cells/ml in 500 μl of 1× binding buffer (Annexin V-FITC Apoptosis Staining/Detection Kit, Abcam, cat. no. ab14085). The cells were transferred to 12×75 mm tubes and annexin V-FITC/propidium iodide (PI) was added and incubated for 5 min at 22° C. protected from light. Stained cell suspensions were analyzed by flow cytometry using a BD LSRFortessa X20.
as §3

total ERK = test: Immunohistochemistry of B16F10 tumors (Day 17), total ERK; type: in vivo, mouse; conditions: B16F10 tumors Day 17, 200 mg/kg i.p.
Source text: as §1
Formalin fixed, paraffin embedded sections were prepared from tumors. Heat-induced epitope retrieval was applied to all deparaffinized sections (4 μm sections on Superfrost slides) with citrate buffer, pH 6.0 for 5 min at 110° C. […] Integrated optical density (IOD) or area of positive staining (red chromagen) was assessed using Image-Pro Plus software (Cybernetics, Bethesda, MD, USA). Positive staining was the average of quantitation in 4-8 fields of view under 20× or 40× objectives.
To assess the effect of BT2 in the same model, C57BL/6J mice bearing s.c. B16F10 tumors were administered with BT2 or vehicle (200 mg/kg or 20 ml/kg, respectively, i.p.) once a day on a 5 days-on/2 days-off schedule. […] Tumor size on Day 17 measured using callipers (FIG. 10A) correlated with isolated weighed tumors (FIG. 10B).

CCOC(=O)Nc1ccc2c(c1)C(=O)N(CC)c1ccccc1O2 [BT2, (10-ethyl-11-oxo-10,11-dihydro-dibenzo[b,f][1,4]oxazepin-2-yl)-carbamic acid ethyl ester]
PD-1 levels in tumors (IHC) (PD-1): reduced
induction of JUN after preincubation of BT2 with EGF (CD28): still induced JUN
PD-L1 levels in tumors (IHC) (PD-L1): increased
cell morphology (A375 cells [1]): loss of spindle morphology and cell rounding
apoptosis (Annexin V-FITC+ PI−) (A375 cells [2]): increased apoptosis
total ERK levels in tumors (IHC) (total ERK): without affecting total ERK levels
